Laboratory results reported in patent US9993436B2, “Porous hollow fiber anti-solvent crystallization-based continuous method of polymer coating on submicron and nanoparticles” (New Jersey Institute of Technology, priority 2014, dated 2018).
In brackets after ≈: the same amount, converted by molar mass.

Assays:
[1] = Particle size distribution by laser diffraction particle size analyzer; type: physicochemical
Protocol: A laser diffraction particle size analyzer (LS230, Beckman Coulter, Brea, Calif.) was used to identify the extent of particle agglomeration. An aqueous micron-size suspension of the particle sample was prepared after 30 s of sonication to break the soft bonding between particles. After that a few drops of the suspension were introduced in the inlet of the instrument for analysis.
Residence time plays an important role in the PHFAC process since precipitation of both the polymer and the drug can be affected by the variation of residence time in the shell side of the module. Residence time can be simply altered by changing the shell-side feed solution flow rate. To identify the influence of the feed solution flow rate on the particle size distribution (PSD) of GF crystals, the solution containing the dissolved drug without any polymer was passed through the PHFAC module at different rates. The particle size distribution will be affected by the extent of supersaturation created and the rate at which supersaturation is created. Both are influenced by the rate at which the anti-solvent is introduced from the tube side to the shell side for a given feed solution flow rate.
Since one of the objectives of the study is to understand the impact of this novel PHFAC coating technique on the synthesized drug particles, the as-received uncoated GF particles and the Eudragit-coated GF particles obtained from the PHFAC were selected for particle size distribution analysis. A suspension of the samples in water was carefully dropped into the inlet of the laser diffraction particle size analyzer. The median size of the uncoated GF sample (11.6 μm) was close to the manufacturer's specification (10 μm). After polymer coating, the median size of the coated drug particles increased to 19.2 μm. One reason for the median size increase is obviously due to the coating which increases the particle size. Another reason is that the coating of GF by the polymer brings in a certain amount of agglomeration. Attachment of neighboring coated drug particles will take place due to the sticking tendency of the polymer-formed liquid bridges.
A laser diffraction particle size analyzer (LS 230, Beckman Coulter, Brea, Calif.) was used to determine the particle size distribution. An aqueous particle suspension of the particle sample was prepared by introducing the dry sample powder into DI water and sonicating it for about 30 seconds to break the soft bonding.

[2] = Dissolution test, USP II paddle method, UV at 296 nm; type: physicochemical; settings: up to 50 minutes; 0.27% SDS solution 900 mL, 37° C., paddle 50 rpm; FIG. 8
Protocol: Dissolution tests for the uncoated and coated Griseofulvin particles were determined via a Distek dissolution tester (North Brunswick, N.J.). According to the USP II paddle method, 0.27% of SDS solution with 900 mL volume was added into the vessel as a buffer solution. Temperature of the medium was maintained at 37° C. and a paddle stirring speed of 50 rpm was used. The sample used was equivalent to a dose of 35 mg of GF, and dropped into a dissolution vessel containing the buffer solution. Samples having a volume of 6 mL were taken out at 1, 3, 5, 10, 20, 30, 40, 50 and 80 min and immediately analyzed by UV spectroscopy (52100UV+, Cole-Parmer, Vernon Hills, Ill.) at a wavelength of 296 nm. As a blank benchmark for the test, a 0.27% SDS buffer solution was measured first.
To illustrate the advantages of a coated drug for controlled release, dissolution tests were performed on three samples: as-received drug, uncoated drug, and polymer-coated drug.

physchem = assay: physchem
Source text: Eudragit RL 100 (Mw, 150,000; a copolymer of methyl methacrylate, ethyl acrylate and methacrylic acid ester) from Evonik-Degussa (Parsippany, N.J.) was employed as the coating polymer. Drug particles of Griseofulvin (GF) from Letco (Decatur, Ala.) were used without further treatment. […] Sodium dodecyl sulfate (SDS) was used as a surfactant (Sigma-Aldrich). Deionized water was used as the tube side anti-solvent liquid. The Nylon 6 hollow fibers were obtained from ENKA America Inc. (Asheville, N.C.).

[3] = cited from earlier work
[4] = drug crystals from PHFAC module without any polymer in the feed solution, various shell/tube side flow rates

Row | Structure (SMILES) | Median size [1, 4] | d10 [1, 4] | d90 [1, 4] | dissolution profile (comparison of curves) [2] | solubility in water (physchem) | solubility (physchem; organic solvent or mixture) | Median size ([1]; suspension in water, FIG. 4) | median size, manufacturer's specification [3]
1 | COC1=CC(=O)C[C@@H](C)[C@]12Oc1c(Cl)c(OC)cc(OC)c1C2=O [X1, Griseofulvin] | 7.333 μm | 4.977 μm | 15.29 μm | – | – | – | – | –
2 | COC1=CC(=O)C[C@@H](C)[C@]12Oc1c(Cl)c(OC)cc(OC)c1C2=O [uncoated GF, Griseofulvin] | – | – | – | essentially similar dissolution curves | – | – | – | –
3 | COC1=CC(=O)C[C@@H](C)[C@]12Oc1c(Cl)c(OC)cc(OC)c1C2=O [X0, Griseofulvin] | 1.617 μm | 1.001 μm | 2.219 μm | – | – | – | – | –
4 | COC1=CC(=O)C[C@@H](C)[C@]12Oc1c(Cl)c(OC)cc(OC)c1C2=O [GF, Griseofulvin] | – | – | – | – | practically insoluble | 116 mM (≈ 40.9 mg/mL) | 11.6 μm | 10 μm
5 | COC1=CC(=O)C[C@@H](C)[C@]12Oc1c(Cl)c(OC)cc(OC)c1C2=O [X2, Griseofulvin] | 11.83 μm | 2.117 μm | 30.30 μm | – | – | – | – | –
6 | COC1=CC(=O)C[C@@H](C)[C@]12Oc1c(Cl)c(OC)cc(OC)c1C2=O [X3, Griseofulvin] | 11.76 μm | 2.939 μm | 26.62 μm | – | – | – | – | –
